Results taken from patent US7642221B2, “Substituted thien-3-yl-sulphonylamino(thio)carbonyl-triazoline(ethi)ones” (Bayer Aktiengesellschaft, priority 1999, dated 2010).

How the values were obtained:
Type in all cases: in vivo
Bromus = test: Pre-emergence test/greenhouse; conditions: greenhouse, 125 g of ai/ha, rated after three weeks
Procedure: (§1) • Solvent: 5 parts by weight of acetone • Emulsifier: 1 part by weight of alkylaryl polyglycol ether
(§2) To produce a suitable preparation of active compound, 1 part by weight of active compound is mixed with the stated amount of solvent, the stated amount of emulsifier is added and the concentrate is diluted with water to the desired concentration.
(§3) Seeds of the test plants are sown in normal soil. After about 24 hours, the soil is sprayed with the preparation of active compound such that the particular amount of active compound desired is applied per unit area. The concentration of the spray liquor is chosen so that the particular amount of active compound desired is applied in 1000 liters of water per hectare.
(§4) After three weeks, the degree of damage to the plants is rated in % damage in comparison to the development of the untreated control.
(§5) The figure denote: • 0%=no effect (like untreated control) • 100%=total destruction

Cyperus = test: Pre-emergence test/greenhouse; conditions: greenhouse, rated after three weeks
Procedure: as §1, §2, §3, §4, §5

Echinochloa [1] = test: Pre-emergence test/greenhouse; conditions: greenhouse, 125 g of ai/ha, rated after three weeks
Procedure: as §1, §2, §3, §4, §5

Solanum [2] = test: Pre-emergence test/greenhouse; conditions: greenhouse, rated after three weeks
Procedure: as §1, §2, §3, §4, §5

Stellaria [3] = test: Pre-emergence test/greenhouse; conditions: greenhouse, 125 g of ai/ha, rated after three weeks
Procedure: as §1, §2, §3, §4, §5

Veronica [4] = test: Pre-emergence test/greenhouse; conditions: greenhouse, 125 g of ai/ha, rated after three weeks
Procedure: as §1, §2, §3, §4, §5

Viola [5] = test: Pre-emergence test/greenhouse; conditions: greenhouse, 125 g of ai/ha, rated after three weeks
Procedure: as §1, §2, §3, §4, §5

Wheat [6] = test: Pre-emergence test/greenhouse; conditions: greenhouse, 125 g of ai/ha, rated after three weeks
Procedure: as §1, §2, §3, §4, §5

weeds [7] = test: Pre-emergence test, activity against weeds
Procedure: as §1, §2, §3, §4, §5

Abutilon [8] = test: Post-emergence test/greenhouse; conditions: greenhouse, rated after three weeks
Procedure: as §1
(§6) To produce a suitable preparation of active compound, one part by weight of active compound is mixed with the stated amount of solvent, the stated amount of emulsifier is added and the concentrate is diluted with water to the desired concentration.
(§7) Test plants which have a height of 5-15 cm are sprayed with the preparation of active compound such that the particular amounts of active compound desired are applied per unit area. The concentration of the spray liquor is chosen so that the particular amounts of active compound desired are applied in 1000 l of water/ha.
as §4
(§8) The figures denote: • 0%=no effect (like untreated control) • 100%=total destruction

Amaranthus [9] = test: Post-emergence test/greenhouse; conditions: greenhouse, rated after three weeks
Procedure: as §1, §6, §7, §4, §8

Ipomoea = test: Post-emergence test/greenhouse; conditions: greenhouse, 8 g of ai/ha, rated after three weeks
Procedure: as §1, §6, §7, §4, §8

Matricaria [10] = test: Post-emergence test/greenhouse; conditions: greenhouse, 8 g of ai/ha, rated after three weeks
Procedure: as §1, §6, §7, §4, §8

Solanum [11] = test: Post-emergence test/greenhouse; conditions: greenhouse, rated after three weeks
Procedure: as §1, §6, §7, §4, §8

Stellaria [12] = test: Post-emergence test/greenhouse; conditions: greenhouse, rated after three weeks
Procedure: as §1, §6, §7, §4, §8

Wheat [13] = test: Post-emergence test/greenhouse; conditions: greenhouse, rated after three weeks
Procedure: as §1, §6, §7, §4, §8

weeds [14] = test: Post-emergence test, activity against weeds
Procedure: as §1, §6, §7, §4, §8

Abutilon [15] = test: Pre-emergence test/greenhouse; conditions: greenhouse, 250 g of ai/ha, rated after three weeks
Procedure: as §1, §2, §3, §4, §5

Alopecurus [16] = test: Pre-emergence test/greenhouse; conditions: greenhouse, rated after three weeks
Procedure: as §1, §2, §3, §4, §5

Amaranthus [17] = test: Pre-emergence test/greenhouse; conditions: greenhouse, rated after three weeks
Procedure: as §1, §2, §3, §4, §5

Galium = test: Pre-emergence test/greenhouse; conditions: greenhouse, 250 g of ai/ha, rated after three weeks
Procedure: as §1, §2, §3, §4, §5

Setaria [18] = test: Pre-emergence test/greenhouse; conditions: greenhouse, rated after three weeks
Procedure: as §1, §2, §3, §4, §5

Sinapis [19] = test: Pre-emergence test/greenhouse; conditions: greenhouse, 250 g of ai/ha, rated after three weeks
Procedure: as §1, §2, §3, §4, §5

Xanthium [20] = test: Pre-emergence test/greenhouse; conditions: greenhouse, 250 g of ai/ha, rated after three weeks
Procedure: as §1, §2, §3, §4, §5

Barley = test: Post-emergence test/greenhouse; conditions: greenhouse, 2 g of ai/ha, rated after three weeks
Procedure: as §1, §6, §7, §4, §8

Chenopodium [21] = test: Post-emergence test/greenhouse; conditions: greenhouse, 2 g of ai/ha, rated after three weeks
Procedure: as §1, §6, §7, §4, §8

Echinochloa [22] = test: Post-emergence test/greenhouse; conditions: greenhouse, 2 g of ai/ha, rated after three weeks
Procedure: as §1, §6, §7, §4, §8

Veronica [23] = test: Post-emergence test/greenhouse; conditions: greenhouse, 2 g of ai/ha, rated after three weeks
Procedure: as §1, §6, §7, §4, §8

Viola [24] = test: Post-emergence test/greenhouse; conditions: greenhouse, 2 g of ai/ha, rated after three weeks
Procedure: as §1, §6, §7, §4, §8

Maize [25] = test: Post-emergence test/greenhouse; conditions: greenhouse, 15 g of ai/ha, rated after three weeks
Procedure: as §1, §6, §7, §4, §8

Setaria [26] = test: Post-emergence test/greenhouse; conditions: greenhouse, rated after three weeks
Procedure: as §1, §6, §7, §4, §8

Chenopodium [27] = test: Pre-emergence test/greenhouse; conditions: greenhouse, 60 g of ai/ha, rated after three weeks
Procedure: as §1, §2, §3, §4, §5

Digitaria = test: Pre-emergence test/greenhouse; conditions: greenhouse, 60 g of ai/ha, rated after three weeks
Procedure: as §1, §2, §3, §4, §5

Maize [28] = test: Pre-emergence test/greenhouse; conditions: greenhouse, 60 g of ai/ha, rated after three weeks
Procedure: as §1, §2, §3, §4, §5

Matricaria [29] = test: Pre-emergence test/greenhouse; conditions: greenhouse, 60 g of ai/ha, rated after three weeks
Procedure: as §1, §2, §3, §4, §5

Alopecurus [30] = test: Post-emergence test/greenhouse; conditions: greenhouse, 250 g of ai/ha, rated after three weeks
Procedure: as §1, §6, §7, §4, §8

Avenafatua = test: Post-emergence test/greenhouse; conditions: greenhouse, 250 g of ai/ha, rated after three weeks
Procedure: as §1, §6, §7, §4, §8

Sinapis [31] = test: Post-emergence test/greenhouse; conditions: greenhouse, 250 g of ai/ha, rated after three weeks
Procedure: as §1, §6, §7, §4, §8

Xanthium [32] = test: Post-emergence test/greenhouse; conditions: greenhouse, 250 g of ai/ha, rated after three weeks
Procedure: as §1, §6, §7, §4, §8

COC(=O)c1csc(C)c1S(=O)(=O)NC(=O)n1nc(OC(C)C)n(C)c1=O [Example 4]
10%: degree of damage to the plants, Wheat (Wheat [13]; 8 g of ai/ha)
95%: degree of damage to the plants, Abutilon (Abutilon [8]; 8 g of ai/ha) | degree of damage to the plants, Amaranthus (Amaranthus [9]; 8 g of ai/ha) | degree of damage to the plants, Ipomoea (Ipomoea) | degree of damage to the plants, Solanum (Solanum [11]; 8 g of ai/ha) | degree of damage to the plants, Stellaria (Stellaria [12]; 8 g of ai/ha)
100%: degree of damage to the plants, Bromus (Bromus) | degree of damage to the plants, Cyperus (Cyperus; 125 g of ai/ha) | degree of damage to the plants, Echinochloa (Echinochloa [1]) | degree of damage to the plants, Solanum (Solanum [2]; 125 g of ai/ha) | degree of damage to the plants, Stellaria (Stellaria [3]) | degree of damage to the plants, Veronica (Veronica [4]) | degree of damage to the plants, Viola (Viola [5])
20%: degree of damage to the plants, Wheat (Wheat [6])
90%: degree of damage to the plants, Matricaria (Matricaria [10])
very strong activity: activity against weeds (weeds [7]) | activity against weeds (weeds [14])

COC(=O)c1csc(C)c1S(=O)(=O)NC(=O)n1nc(OC)n(C2CC2)c1=O [Example 5]
very strong activity: activity against weeds (weeds [7]) | activity against weeds (weeds [14])
10%: degree of damage to the plants, Barley (Barley) | degree of damage to the plants, Wheat (Wheat [13]; 2 g of ai/ha)
90%: degree of damage to the plants, Veronica (Veronica [23]) | degree of damage to the plants, Viola (Viola [24])
100%: degree of damage to the plants, Amaranthus (Amaranthus [17]; 250 g of ai/ha) | degree of damage to the plants, Cyperus (Cyperus; 250 g of ai/ha) | degree of damage to the plants, Setaria (Setaria [18]; 250 g of ai/ha) | degree of damage to the plants, Stellaria (Stellaria [12]; 2 g of ai/ha)
99%: degree of damage to the plants, Alopecurus (Alopecurus [16]; 250 g of ai/ha) | degree of damage to the plants, Xanthium (Xanthium [20]) | degree of damage to the plants, Amaranthus (Amaranthus [9]; 2 g of ai/ha)
95%: degree of damage to the plants, Abutilon (Abutilon [15]) | degree of damage to the plants, Galium (Galium) | degree of damage to the plants, Sinapis (Sinapis [19]) | degree of damage to the plants, Chenopodium (Chenopodium [21]) | degree of damage to the plants, Echinochloa (Echinochloa [22])

COC(=O)c1csc(C)c1S(=O)(=O)NC(=O)n1nc(C)n(C)c1=O [Example 10]
100%: degree of damage to the plants, Amaranthus (Amaranthus [17]; 250 g of ai/ha) | degree of damage to the plants, Setaria (Setaria [18]; 250 g of ai/ha) | degree of damage to the plants, Sinapis (Sinapis [19])
90%: degree of damage to the plants, Xanthium (Xanthium [20]) | degree of damage to the plants, Abutilon (Abutilon [8]; 15 g of ai/ha) | degree of damage to the plants, Amaranthus (Amaranthus [9]; 15 g of ai/ha) | degree of damage to the plants, Solanum (Solanum [11]; 15 g of ai/ha)
very strong activity: activity against weeds (weeds [7]) | activity against weeds (weeds [14])
10%: degree of damage to the plants, Maize (Maize [25]) | degree of damage to the plants, Wheat (Wheat [13]; 15 g of ai/ha)
95%: degree of damage to the plants, Abutilon (Abutilon [15]) | degree of damage to the plants, Alopecurus (Alopecurus [16]; 250 g of ai/ha) | degree of damage to the plants, Cyperus (Cyperus; 250 g of ai/ha) | degree of damage to the plants, Galium (Galium) | degree of damage to the plants, Setaria (Setaria [26]; 15 g of ai/ha) | degree of damage to the plants, Stellaria (Stellaria [12]; 15 g of ai/ha)

CCc1nn(C(=O)NS(=O)(=O)c2c(C(=O)OC)csc2C)c(=O)n1C [Example 11]
very strong activity: activity against weeds (weeds [7]) | activity against weeds (weeds [14])
10%: degree of damage to the plants, Maize (Maize [28])
100%: degree of damage to the plants, Alopecurus (Alopecurus [16]; 60 g of ai/ha) | degree of damage to the plants, Amaranthus (Amaranthus [17]; 60 g of ai/ha) | degree of damage to the plants, Chenopodium (Chenopodium [27]) | degree of damage to the plants, Digitaria (Digitaria) | degree of damage to the plants, Matricaria (Matricaria [29]) | degree of damage to the plants, Setaria (Setaria [18]; 60 g of ai/ha) | degree of damage to the plants, Solanum (Solanum [2]; 60 g of ai/ha) | degree of damage to the plants, Abutilon (Abutilon [8]; 250 g of ai/ha) | degree of damage to the plants, Alopecurus (Alopecurus [30]) | degree of damage to the plants, Amaranthus (Amaranthus [9]; 250 g of ai/ha) | degree of damage to the plants, Avenafatua (Avenafatua) | degree of damage to the plants, Setaria (Setaria [26]; 250 g of ai/ha) | degree of damage to the plants, Sinapis (Sinapis [31]) | degree of damage to the plants, Xanthium (Xanthium [32])
